The results in this text go back to US20250051319A1 (AUGUSTINE THERAPEUTICS, priority 2021, published 2025).

By IC50 is commonly meant the point on the concentration scale where inhibition reaches its midpoint.

In this assay the target is catalytic domain 2 (CD2) of HDAC6 (Homo sapiens (Human), UniProt Q9UBN7). The assay can be described thus: Cellular target engagement assay - NanoBRET. In kind it is cell-based. To be noted: NanoLuc-HDAC6(CD2) in HEK293T cells, 2 hours, read-out: IC50 (HDAC6(CD2) interaction). The procedure: NanoBRET target engagement was performed against the catalytic domain 2 (CD2) of HDAC6, with minor modifications of kit manufacturer protocol (Promega). Expression of exogenous NanoLuc-HDAC6(CD2) fusion and in HEK293T was achieved following transient transfection with FuGENE HD Transfection Reagent (Promega). The intracellular target engagement assay on HDAC6(CD2) was performed in a 384-well plate format with 8,000 cells per well and a tracer concentration of 0.125 μM or 0.600 μM for HDAC6(CD2). Compounds (dissolved in 100% DMSO) or DMSO (vehicle) were added either manually by diluting them in culture medium at 8× final assay concentration and then adding 5 μL to assay plate or in an automated way by adding […] compound to 5 μL OptiMEM without phenol red (Gibco) using the Echo650 (Labcyte). Tracer solution was added to the cells before seeding 35 μL cell/tracer mixture in the assay plate. The final reaction volume was 40 μL, final DMSO concentration was 1.4% (manual compound addition) or 1.25% (automated compound addition). Assay plates were incubated at 37° C. in a humidified atmosphere containing 5% C02 for 2 hours. The NanoBRET Nano-glo Substrate/Inhibitor was prepared by diluting NanoBRET Nano-Glo Substrate (1:332) and Extracellular Inhibitor (1:1000) in assay medium (Promega). […] BRET ratios were calculated from acceptor/donor signal ratio (mBRET=acceptor/donor*1000) and normalized for each plate. Percentage inhibition was calculated by setting the mBRET obtained with cells without tracer to 100%, while the mBRET obtained with uninhibited cells with tracer was set to 0%. IC50-values were calculated from the percentage inhibition with the log(inhibitor) vs. response—Variable slope (four parameters) nonlinear regression in GraphPad Prism software.
catalytic domain 2 (CD2) of HDAC6, sequence (Q9UBN7 482-800): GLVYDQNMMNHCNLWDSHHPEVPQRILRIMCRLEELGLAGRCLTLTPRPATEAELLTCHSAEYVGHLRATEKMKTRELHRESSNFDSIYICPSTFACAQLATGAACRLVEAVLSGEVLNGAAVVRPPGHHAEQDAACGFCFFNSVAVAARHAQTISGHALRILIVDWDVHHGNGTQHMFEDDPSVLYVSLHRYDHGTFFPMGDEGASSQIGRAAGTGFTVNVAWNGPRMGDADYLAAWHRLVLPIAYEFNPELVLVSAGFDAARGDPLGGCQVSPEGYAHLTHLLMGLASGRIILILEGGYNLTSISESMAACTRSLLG
Consider `CC(NC(=O)CO)c1ccc(C(=O)CSc2nc3cnc(C(F)(F)F)cc3o2)s1` (stereo in doubt) [Example 129, (S)-2-hydroxy-N-(1-(5-(2-((6-(trifluoromethyl)oxazolo[4,5-c]pyridin-2-yl)thio)acetyl)thiophen-2-yl)ethyl)acetamide], for which the IC50 was at most 100 nM.
In the case of `O=C(CSc1nc(C(F)(F)F)nc2ncccc12)c1ccc(CN2CCC(O)C2=O)s1` (stereo in doubt) [Example 156, (R)-3-hydroxy-1-((5-(2-((2-(trifluoromethyl)pyrido[2,3-d]pyrimidin-4-yl)thio)acetyl)thiophen-2-yl)methyl)pyrrolidin-2-one] it was at most 100 nM.
In the case of `Cn1ncc2c(SCC(=O)c3ccc(CNC(=O)C(O)C(F)(F)F)s3)ncnc21` (centres unmarked) [Compound 42, 3,3,3-trifluoro-2-hydroxy-N-((5-(2-((1-methyl-1H-pyrazolo[3,4-d]pyrimidin-4-yl)thio)acetyl)thiophen-2-yl)methyl)propanamide] it was 500 to 1000 nM; in that of `O=C(CSc1nc2nc(C(F)(F)F)ccc2o1)c1ccc(CNC(=O)C2(O)CC2)s1` [Compound 45, 1-hydroxy-N-((5-(2-((5-(trifluoromethyl)oxazolo[4,5-b]159yrrolid-2-yl)thio)acetyl)thiophen-2-yl)methyl)cyclopropane-1-carboxamide], at most 100 nM; in that of `Cn1cc2c(SCC(=O)c3ccc(CNC(=O)C(O)C(F)(F)F)s3)nc(C(F)(F)F)nc2n1` (centres unmarked) [Compound 46, 3,3,3-trifluoro-2-hydroxy-N-((5-(2-((2-methyl-6-(trifluoromethyl)-2H-pyrazolo[3,4-d]pyrimidin-4-yl)thio)acetyl)thiophen-2-yl)methyl)propanamide], at most 100 nM.
In the case of `O=C(CSc1nc(C(F)(F)F)nc2ccc(N3CCOCC3)cc12)c1ccc(CNC(=O)C2(O)CC2)s1` [Compound 47, 1-hydroxy-N-((5-(2-((6-morpholino-2-(trifluoromethyl)quinazolin-4-yl)thio)acetyl)thiophen-2-yl)methyl)cyclopropane-1-carboxamide] it was 100 to 500 nM; in that of `Cn1cc2c(SCC(=O)c3ccc(CNC(=O)C(C)(C)O)s3)nc(C(F)(F)F)nc2n1` [Compound 48, 2-hydroxy-2-methyl-N-((5-(2-((2-methyl-6-(trifluoromethyl)-2H-pyrazolo[3,4-d]pyrimidin-4-yl)thio)acetyl)thiophen-2-yl)methyl)propanamide], at most 100 nM; in that of `Cn1cc2c(SCC(=O)c3ccc(CNC(=O)C4(O)CC4)s3)nc(C(F)(F)F)nc2n1` [Compound 49, 1-hydroxy-N-((5-(2-((2-methyl-6-(trifluoromethyl)-2H-pyrazolo[3,4-d]pyrimidin-4-yl)thio)acetyl)thiophen-2-yl)methyl)cyclopropane-1-carboxamide], at most 100 nM.
In the case of `COc1ccc2nc(C)nc(SCC(=O)c3ccc(CNC(=O)C4(O)CC4)s3)c2c1` [Compound 50, 1-hydroxy-N-((5-(2-((6-methoxy-2-methylquinazolin-4-yl)thio)acetyl)thiophen-2-yl)methyl)cyclopropane-1-carboxamide], the IC50 lay within 100 to 500 nM.
On to `Cn1ncc2c(SCC(=O)c3ccc(CNC(=O)C(C)(C)O)s3)ncnc21` [Compound 52, 2-hydroxy-2-methyl-N-((5-(2-((1-methyl-1H-pyrazolo[3,4-d]pyrimidin-4-yl)thio)acetyl)thiophen-2-yl)methyl)propanamide], for which the IC50 lay within 500 to 1000 nM.
In the case of `CCc1nc(SCC(=O)c2ccc(CNC(=O)CO)s2)c2ccccc2n1` [Compound 62, N-((5-(2-((2-ethylquinazolin-4-yl)thio)acetyl)thiophen-2-yl)methyl)-2-hydroxyacetamide] it was at most 100 nM.
In the case of `Cc1nc(SCC(=O)c2ccc(CNC(=O)CO)s2)c2cn(C)nc2n1` [Compound 65, N-((5-(2-((2,6-dimethyl-2H-pyrazolo[3,4-d]pyrimidin-4-yl)thio)acetyl)thiophen-2-yl)methyl)-2-hydroxyacetamide] it was 500 to 1000 nM; in that of `Cc1nc(SCC(=O)c2ccc(CNC(=O)CO)s2)c2ccccc2n1` [Compound 66, 2-hydroxy-N-((5-(2-((2-methylquinazolin-4-yl)thio)acetyl)thiophen-2-yl)methyl)acetamide], at most 100 nM; in that of `Cc1nc(SCC(=O)c2ccc(CNC(=O)CO)s2)c2cc(F)ccc2n1` [Compound 67, N-((5-(2-((6-fluoro-2-methylquinazolin-4-yl)thio)acetyl)thiophen-2-yl)methyl)-2-hydroxyacetamide], 100 to 500 nM.
In the case of `Cc1nc(SCC(=O)c2ccc(CNC(=O)CO)s2)c2ccc(F)cc2n1` [Compound 68, N-((5-(2-((7-fluoro-2-methylquinazolin-4-yl)thio)acetyl)thiophen-2-yl)methyl)-2-hydroxyacetamide] it was 100 to 500 nM.
Regarding `COc1ccc2c(SCC(=O)c3ccc(CNC(=O)CO)s3)nc(C)nc2c1` [Compound 70, 2-hydroxy-N-((5-(2-((7-methoxy-2-methylquinazolin-4-yl)thio)acetyl)thiophen-2-yl)methyl)acetamide], the IC50 was 100 to 500 nM.
In the case of `Cc1nc(SCC(=O)c2ccc(CNC(=O)CO)s2)c2cc(OC3CC3)ccc2n1` [Compound 77, N-((5-(2-((6-cyclopropoxy-2-methylquinazolin-4-yl)thio)acetyl)thiophen-2-yl)methyl)-2-hydroxyacetamide] it was at most 100 nM.
In the case of `Cc1nc(SCC(=O)c2ccc(CNC(=O)CO)s2)c2cc(NCC3CC3)ccc2n1` [Compound 78, N-((5-(2-((6-((cyclopropylmethyl)amino)-2-methylquinazolin-4-yl)thio)acetyl)thiophen-2-yl)methyl)-2-hydroxyacetamide] it was at most 100 nM; in that of `COc1ccc2nc(C(F)(F)F)nc(SCC(=O)c3ccc(CNC(=O)CO)s3)c2c1` [Compound 80, 2-hydroxy-N-((5-(2-((6-methoxy-2-(trifluoromethyl)quinazolin-4-yl)thio)acetyl)thiophen-2-yl)methyl)acetamide], at most 100 nM; in that of `Cc1nc(SCC(=O)c2ccc(CNC(=O)CO)s2)c2cc(N3CCOCC3)ccc2n1` [Compound 81, 2-hydroxy-N-((5-(2-((2-methyl-6-morpholinoquinazolin-4-yl)thio)acetyl)thiophen-2-yl)methyl)acetamide], at most 100 nM.
In the case of `Cc1nc(SCC(=O)c2ccc(CNC(=O)CO)s2)c2cc(N3CCCCC3)ccc2n1` [Compound 82, 2-hydroxy-N-((5-(2-((2-methyl-6-(piperidin-1-yl)quinazolin-4-yl)thio)acetyl)thiophen-2-yl)methyl)acetamide] it was at most 100 nM.
In the case of `Cc1nc(SCC(=O)c2ccc(CNC(=O)CO)s2)c2cc(N3CCCOCC3)ccc2n1` [Compound 83, 2-hydroxy-N-((5-(2-((2-methyl-6-(1,4-oxazepan-4-yl)quinazolin-4-yl)thio)acetyl)thiophen-2-yl)methyl)acetamide], the 50% inhibitory concentration (IC50) is at most 100 nM.
In the case of `Cc1nc(SCC(=O)c2ccc(CNC(=O)CO)s2)c2cc(N3CCC(F)(F)C3)ccc2n1` [Compound 84, N-((5-(2-((6-(3,3-difluoropyrrolidin-1-yl)-2-methylquinazolin-4-yl)thio)acetyl)thiophen-2-yl)methyl)-2-hydroxyacetamide] it was at most 100 nM.
In the case of `Cn1ncc2c(SCC(=O)c3ccc(C4CCN(C(=O)CO)C4)s3)ncnc21` (centres unmarked) [Compound 86, 2-hydroxy-1-(3-(5-(2-((1-methyl-1H-pyrazolo[3,4-d]pyrimidin-4-yl)thio)acetyl)thiophen-2-yl)157yrrolidine-1-yl)ethan-1-one] it was 1000 to 10000 nM.
In the case of `Cn1ncc2c(SCC(=O)c3ccc(CNS(=O)(=O)c4ccccc4)s3)ncnc21` [Compound 88, N-((5-(2-((1-methyl-1H-pyrazolo[3,4-d]pyrimidin-4-yl)thio)acetyl)thiophen-2-yl)methyl)benzenesulfonamide] it was 1000 to 10000 nM; in that of `Cn1ncc2c(SCC(=O)c3ccc(CNS(=O)(=O)C4CC4)s3)ncnc21` [Compound 89, N-((5-(2-((1-methyl-1H-pyrazolo[3,4-d]pyrimidin-4-yl)thio)acetyl)thiophen-2-yl)methyl)cyclopropanesulfonamide], 1000 to 10000 nM.
As to `Cn1ncc2c(SCC(=O)c3ccc(C4CCN(S(N)(=O)=O)C4)s3)ncnc21` (centres unmarked) [Compound 96, 3-(5-(2-((1-methyl-1H-pyrazolo[3,4-d]pyrimidin-4-yl)thio)acetyl)thiophen-2-yl)pyrrolidine-1-sulfonamide], the IC50 is 500 to 1000 nM.
In the case of `CC(=O)NCc1ccc(C(=O)CSc2nc(C(F)(F)F)nc3ccccc23)s1` [Compound 99, N-((5-(2-((2-(trifluoromethyl)quinazolin-4-yl)thio)acetyl)thiophen-2-yl)methyl)acetamide] it was at most 100 nM; in that of `CC(=O)NCCc1ccc(C(=O)CSc2nc(C(F)(F)F)nc3ccccc23)s1` [Compound 100, N-(2-(5-(2-((2-(trifluoromethyl)quinazolin-4-yl)thio)acetyl)thiophen-2-yl)ethyl)acetamide], 100 to 500 nM.
